Experimental findings from patent US6369057B1, “Quinoxalines, processes for their preparation and their use” (Aventis Pharma Deutschland GmbH, priority 1991, dated 2002) are described below.

For data set [1], the system named is HIV. The data set can be described thus: Test of preparations against HIV in cell culture (T-cell culture assay). The class given is cell-based. The settings on record: Human immunodeficiency virus 1, 72 h; lowest concentration where no giant cells were observed; HIV-infected lymphocytes from donor blood, 3 days at 37° C.
Data set [2] deals with T1, HIV reverse transcriptase (RT) (Human immunodeficiency virus type 1 group M subtype B, UniProt P03366).
T1 construct: The enzyme RT (from HIV cloned in E. coli); purchased HT-Biotechnology Ltd, Cambridge, UK; host or cells: E. coli
Description: Assay for HIV reverse transcriptase inhibition (scintillation proximity assay). The data set is classed as biochemical. To be noted: RT from HIV cloned in E. coli; SPA, 60 minutes (37° C.); read-out: Reverse Transcriptase Assay IC50 (converted). (Scintillation proximity formats need no separation of bound from free tracer.)

Converted amounts (≈) assume the structure as drawn.

`CC=CCN1c2cc(Cl)ccc2NC(=O)[C@@H]1C` [VII, (3S)-6-Chloro-3-methyl-4-N-(2-buten-1-yl)-3,4-dihydroquinoxalin-2(1H)-one]: the melting point fell in the range of 87 to 88 °C. Besides, the MIC in data set [1] was < 0.16 µg/mL. In addition, the IC50 in data set [2] is 399 nM.
On to `C=COC(=O)N1c2cc(Cl)ccc2NC(=O)[C@@H]1C` [XIV, (3S)-6-Chloro-3-methyl-4-N-(vinyloxycarbonyl)-3,4-di-hydroquinoxalin-2(1H)-one], for which the melting point was 177 to 179 °C. Besides, the MIC in data set [1] is < 0.16 µg/mL. Besides, the IC50 in data set [2] was 600 nM.
In turn, `C=C(C)OC(=O)N1c2cc(Cl)ccc2NC(=S)[C@@H]1C` [XXIII, (3S)-6-Chloro-4-N-(isopropenyloxycarbonyl)-3-methyl-3,4-dihydroquinoxaline-2(1H)-thione] displayed a melting point of 148 to 150 °C. For the same compound, in data set [1], the MIC is < 0.01 µg/mL. In data set [2], the IC50 was 84.2 nM.
`C[C@H]1C(=O)Nc2ccc(Cl)cc2N1C(=O)OCCBr` [Example XII, (3S)-4-N-(2-Bromoethyloxycarbonyl)-6-chloro-3-methyl-3,4-dihydroquinoxalin-2(1H)-one] came in with a melting point of 133 to 136 °C. Also, the MIC in data set [1] is < 0.8 µg/mL.
`CC(C)=CCN1c2cc(Cl)ccc2NC(=O)[C@@H]1C` [VI-A, (3S)-6-Chloro-3-methyl-4-N-(3-methyl-2-buten-1-yl)-3,4-dihydroquinoxalin-2(1H)-one] registered a melting point of 117 to 118 °C. The MIC in data set [1] worked out at 0.16 µg/mL (≈ 0.604 µM). In data set [2], the IC50 is 302 nM.
Compound `C=CC(C)(C)C1C(=O)Nc2ccc(Cl)cc2N1CC=C(C)C` (stereo not shown) [Example XVI, 6-Chloro-4-N-(3-methyl-2-buten-1-yl)-3-(1,1-dimethyl-2-propen-1-yl)-3,4-dihydroquinoxalin-2(1H)-one] had a melting point of 110 to 112 °C.
Same read-out and setting: then `COc1ccc(OC(=O)N2c3cc(Cl)ccc3NC(=O)[C@@H]2C)cc1` [IX, (3S)-6-Chloro-4-N-(4-methoxyphenoxycarbonyl)-3-methyl-3,4-dihydroquinoxalin-2(1H)-one], with 187 to 190 °C.
On the same count and under the same terms, then `CC(C)=CCN1CC(=O)Nc2cc(S(=O)(=O)Oc3ccccc3)ccc21` [Example XXX, 4-(3-Methyl-2-buten-1-yl)-7-phenoxysulfonyl-3,4-dihydroquinoxalin-2(1H)-one], with 132 °C.
Regarding `C[C@H]1C(=O)Nc2c(N)cc(Cl)cc2N1C(=O)OCc1ccccc1` [Example V, (3S)-8-Amino-4-N-(benzyloxycarbonyl)-6-chloro-3-methyl-3,4-dihydroquinoxalin-2(1H)-one], the melting point was in the range of 152 to 154 °C. Further, in data set [2], the IC50 was 21700 nM.
`O=C1Nc2cc(S(=O)(=O)Oc3ccccc3)ccc2N2C(=O)CCC12` (stereo not shown) [XXVII, 7-Phenoxysulfonyl-3,3a-dihydropyrrolo[1,2-a]quinoxaline-1,4(2H,5H)-dione]: the melting point is 140 °C (dec.).
Still for that read-out and setting: as for `COCCOC(=O)N1c2cc(Cl)ccc2NC(=O)[C@@H]1C` [XXXVI, (3S)-6-Chloro-4-N-(2-methoxyethoxycarbonyl)-3-methyl-3,4-dihydroquinoxalin-2(1H)-one], the figure is 93 to 94 °C.
Turning to `C[C@H]1C(=O)Nc2c(cc(Cl)cc2[N+](=O)[O-])N1C(=O)OCc1ccccc1` [Example IV, (3S)-4-N-(Benzyloxycarbonyl)-6-chloro-3-methyl-8-nitro-3,4-dihydroquinoxalin-2(1H)-one], the melting point was found to be 85 °C. Moreover, the MIC in data set [1] is > 0.8 µg/mL.
Compound `C[C@H]1C(=O)Nc2ccc(Cl)cc2N1C(=O)Oc1ccc(F)cc1` [Example X, (3S)-6-Chloro-4-N-(4-fluorophenoxycarbonyl)-3-methyl-3,4-dihydroquinoxalin-2(1H)-one] yielded a melting point of 168 to 170 °C. Further, the MIC in data set [1] is 0.8 µg/mL (≈ 2.39 µM).

The IC50 is the concentration at which inhibition is half-maximal. As usually defined, the melting point is the temperature of the solid-liquid transition.
